Values joined by “and” are separate entries in the source; they are usually repeats but may differ in a detail not shown here. Equal entries are not always repeated. Toxic doses and inconclusive results are not listed. The calls were made as follows: active = survival T/C of 150% or more; inactive = T/C below 125% in these data.
System: BDF1 mice, P388 leukemia ip, median survival T/C
Experiment: NCI In Vivo Anticancer Drug Screen. Data for tumor model P388 Leukemia (intraperitoneal) in B6D2F1 (BDF1) mice
Settings: endpoint: median survival time, higher = longer survival
How it was run: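 Vehicle-dosed animals serve as the reference; survival of compound-dosed, tumour-implanted mice is divided by it.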

[1] = dose: 100.0 mg/kg/injection, schedule: Q01DX009 (ip), vehicle: Klucel (hydroxypropylcellulose) (HPC)
[2] = dose: 200.0 mg/kg/injection, schedule: Q01DX009 (ip), vehicle: Klucel (hydroxypropylcellulose) (HPC)
[3] = dose: 100.0 mg/kg/injection, schedule: Q04DX003 (ip), vehicle: saline with Tween-80
[4] = dose: 200.0 mg/kg/injection, schedule: Q04DX003 (ip), vehicle: Klucel (hydroxypropylcellulose) (HPC)
[5] = dose: 200.0 mg/kg/injection, schedule: Q04DX003 (ip), vehicle: saline with Tween-80
[6] = dose: 3.12 mg/kg/injection, schedule: Q01DX009 (ip), vehicle: saline
[7] = dose: 6.25 mg/kg/injection, schedule: Q01DX009 (ip), vehicle: saline
[8] = dose: 12.5 mg/kg/injection, schedule: Q01DX009 (ip), vehicle: saline
[9] = dose: 25.0 mg/kg/injection, schedule: Q04DX003 (ip), vehicle: saline
[10] = dose: 50.0 mg/kg/injection, schedule: Q01DX009 (ip), vehicle: saline
[11] = dose: 25.0 mg/kg/injection, schedule: Q04DX003 (ip), vehicle: Klucel (hydroxypropylcellulose) (HPC)
[12] = dose: 50.0 mg/kg/injection, schedule: Q04DX003 (ip), vehicle: Klucel (hydroxypropylcellulose) (HPC)
[13] = dose: 100.0 mg/kg/injection, schedule: Q04DX003 (ip), vehicle: Klucel (hydroxypropylcellulose) (HPC)
[14] = dose: 400.0 mg/kg/injection, schedule: Q04DX003 (ip), vehicle: saline with Tween-80

Measured: T/C

O=CC(S)CO (stereo not given)
active: dose: 50.0 mg/kg/injection, schedule: Q01DX010 (ip), vehicle: carboxymethylcellulose (CMC) 166 % of control | dose: 100.0 mg/kg/injection, schedule: Q01DX010 (ip), vehicle: carboxymethylcellulose (CMC) 166 % of control
inactive: dose: 12.5 mg/kg/injection, schedule: Q01DX010 (ip), vehicle: carboxymethylcellulose (CMC) 122 % of control | dose: 25.0 mg/kg/injection, schedule: Q01DX010 (ip), vehicle: carboxymethylcellulose (CMC) 122 % of control

O=C(Nc1ccc2c(c1)C(Br)c1ccccc1-2)C(F)(F)F (stereo not given)
inactive: dose: 50.0 mg/kg/injection, schedule: Q01DX009 (ip), vehicle: Klucel (hydroxypropylcellulose) (HPC) 90 % of control | [1] 100 % of control | [2] 118 % of control

COC(=O)c1cc(Cl)nc2nc(Cl)nc(Cl)c12
inactive: dose: 50.0 mg/kg/injection, schedule: Q01DX009 (ip), vehicle: DMSO 114 % of control | dose: 100.0 mg/kg/injection, schedule: Q01DX009 (ip), vehicle: DMSO 112 % of control | dose: 200.0 mg/kg/injection, schedule: Q01DX009 (ip), vehicle: DMSO 102 % of control

CCCCc1ccc2nc(NC(=O)OC)[nH]c2c1
inactive: dose: 200.0 mg/kg/injection, schedule: Q04DX003 (ip), vehicle: other 93 % of control | [5] 96 % of control
active: dose: 100.0 mg/kg/injection, schedule: Q04DX003 (ip), vehicle: other 174 % of control | [3] 169 % of control | [4] 160 % of control

COc1ccc2c(c1)c1c(C)c3cnccc3c(C)c1n2CCCN
inactive: dose: 1.56 mg/kg/injection, schedule: Q01DX009 (ip), vehicle: saline 95 % of control | [6] 95 % of control | dose: 3.12 mg/kg/injection, schedule: Q04DX003 (ip), vehicle: saline 112 % of control | [7] 111 % of control | dose: 6.25 mg/kg/injection, schedule: Q04DX003 (ip), vehicle: saline 121 % of control | [8] 105 % of control | dose: 12.5 mg/kg/injection, schedule: Q04DX003 (ip), vehicle: saline 107 % of control | [9] 101 % of control and 104 % of control

CC(C)(C)OC(=O)NC(CCSCC(=O)O)C(N)=O (stereo not given)
inactive: [10] 91 % of control | dose: 100.0 mg/kg/injection, schedule: Q01DX009 (ip), vehicle: saline 88 % of control | dose: 200.0 mg/kg/injection, schedule: Q01DX009 (ip), vehicle: saline 95 % of control

C=CCOCCC(=O)OCC=C
inactive: dose: 12.0 mg/kg/injection, schedule: Q01DX001 (ip), vehicle: Klucel (hydroxypropylcellulose) (HPC) 104 % of control | dose: 25.0 mg/kg/injection, schedule: Q01DX001 (ip), vehicle: Klucel (hydroxypropylcellulose) (HPC) 100 % of control | [11] 100 % of control | dose: 50.0 mg/kg/injection, schedule: Q01DX001 (ip), vehicle: Klucel (hydroxypropylcellulose) (HPC) 86 % of control | [12] 104 % of control | [13] 86 % of control and 100 % of control

C[C@]12CC[C@@H]3c4ccc(O)cc4CC[C@H]3[C@@H]1CC[C@@H]2OC(=O)CCC1CCCC1
inactive: [1] 100 % of control | [13] 104 % of control | [2] 95 % of control | [4] 104 % of control | dose: 400.0 mg/kg/injection, schedule: Q01DX009 (ip), vehicle: Klucel (hydroxypropylcellulose) (HPC) 104 % of control | dose: 400.0 mg/kg/injection, schedule: Q04DX003 (ip), vehicle: Klucel (hydroxypropylcellulose) (HPC) 104 % of control

CC[NH-].CC[NH-].[I][Pt+2][I]
active: [6] 190 % of control | [7] 185 % of control

NNC(=O)C1CC1
inactive: [7] 96 % of control | [8] 107 % of control | dose: 25.0 mg/kg/injection, schedule: Q01DX009 (ip), vehicle: saline 100 % of control | [9] 100 % of control | [10] 100 % of control | dose: 50.0 mg/kg/injection, schedule: Q04DX003 (ip), vehicle: saline 100 % of control | dose: 100.0 mg/kg/injection, schedule: Q04DX003 (ip), vehicle: saline 104 % of control

Nc1ncnc2c1ncn2C1CC(CO)C(O)C1O (stereo not given)
inactive: dose: 6.25 mg/kg/injection, schedule: Q01DX009 (ip), vehicle: carboxymethylcellulose (CMC) 100 % of control | dose: 12.5 mg/kg/injection, schedule: Q01DX009 (ip), vehicle: carboxymethylcellulose (CMC) 95 % of control

CCC1=C(c2ccc(OC)cc2)CCC(C(=O)O)C1C (stereo not given)
inactive: dose: 3.0 mg/kg/injection, schedule: Q01DX010 (sc), vehicle: steriod suspending solution 90 % of control | dose: 6.0 mg/kg/injection, schedule: Q01DX010 (sc), vehicle: steriod suspending solution 105 % of control | dose: 12.0 mg/kg/injection, schedule: Q01DX010 (sc), vehicle: steriod suspending solution 100 % of control | dose: 24.0 mg/kg/injection, schedule: Q01DX010 (sc), vehicle: steriod suspending solution 95 % of control | dose: 48.0 mg/kg/injection, schedule: Q01DX010 (sc), vehicle: steriod suspending solution 100 % of control | dose: 96.0 mg/kg/injection, schedule: Q01DX010 (sc), vehicle: steriod suspending solution 110 % of control | dose: 192.0 mg/kg/injection, schedule: Q01DX010 (sc), vehicle: steriod suspending solution 105 % of control

C=C1[C@@H](O)[C@]2(O)OC[C@@]34[C@H]1[C@@H](OC(=O)C(C)CC)C(=O)O[C@@H]3C[C@H]1C(C)=CC(=O)[C@@H](O)[C@]1(C)[C@@H]24 (stereo not given in full)
inactive: dose: 8.0 mg/kg/injection, schedule: Q01DX009 (ip), vehicle: saline 95 % of control
active: dose: 0.5 mg/kg/injection, schedule: Q01DX009 (ip), vehicle: saline with Tween-80 184 % of control | dose: 1.0 mg/kg/injection, schedule: Q01DX009 (ip), vehicle: saline with Tween-80 159 % of control | dose: 1.0 mg/kg/injection, schedule: Q01DX009 (ip), vehicle: saline 153 % of control | dose: 2.0 mg/kg/injection, schedule: Q01DX009 (ip), vehicle: saline with Tween-80 178 % of control | dose: 4.0 mg/kg/injection, schedule: Q01DX009 (ip), vehicle: saline 166 % of control

O=C(Nc1ccccc1O)c1ccccc1
inactive: dose: 100.0 mg/kg/injection, schedule: Q04DX003 (ip), vehicle: saline sonified 90 % of control | dose: 200.0 mg/kg/injection, schedule: Q04DX003 (ip), vehicle: saline sonified 100 % of control | dose: 400.0 mg/kg/injection, schedule: Q04DX003 (ip), vehicle: saline sonified 90 % of control

CN1CCCN(C)CC1
inactive: dose: 75.0 mg/kg/injection, schedule: Q01DX009 (ip), vehicle: saline with Tween-80 103 % of control | [3] 100 % of control | dose: 150.0 mg/kg/injection, schedule: Q01DX009 (ip), vehicle: saline with Tween-80 119 % of control | [5] 95 % of control | dose: 300.0 mg/kg/injection, schedule: Q01DX009 (ip), vehicle: saline with Tween-80 107 % of control | [14] 112 % of control

C=CC[N+](CC=C)(CC=C)CCC[N+](CC=C)(CC=C)CC=C
inactive: dose: 25.0 mg/kg/injection, schedule: Q04DX003 (ip), vehicle: water 107 % of control | dose: 50.0 mg/kg/injection, schedule: Q04DX003 (ip), vehicle: water 88 % of control

CC(C)=CC(=O)n1nc2c(c1CC(C)C)C(=O)C(Nc1ccccc1)=CC2=O
inactive: [3] 93 % of control | [5] 90 % of control | [14] 100 % of control

C=C1C(=O)OC2/C=C(\C)CC(O)/C=C(/C)CC(OC(=O)C3(C)OC3C)C12 (stereo not given)
inactive: dose: 100.0 mg/kg/injection, schedule: Q04DX002 (ip), vehicle: Klucel (hydroxypropylcellulose) (HPC) 111 % of control | dose: 200.0 mg/kg/injection, schedule: Q04DX002 (ip), vehicle: Klucel (hydroxypropylcellulose) (HPC) 113 % of control

CC(C)(C)C1Sc2nc3ccccc3n2C1=O (stereo not given)
inactive: dose: 12.5 mg/kg/injection, schedule: Q01DX009 (ip), vehicle: Klucel (hydroxypropylcellulose) (HPC) 114 % of control | dose: 12.5 mg/kg/injection, schedule: Q04DX003 (ip), vehicle: Klucel (hydroxypropylcellulose) (HPC) 100 % of control | dose: 25.0 mg/kg/injection, schedule: Q01DX009 (ip), vehicle: Klucel (hydroxypropylcellulose) (HPC) 114 % of control | [11] 120 % of control | [12] 120 % of control

CCOC(=O)NC1=C(N2CC2C)C(=O)C(NC(=O)OCC)=C(N2CC2C)C1=O (stereo not given)
inactive: dose: 3.12 mg/kg/injection, schedule: Q01DX001 (ip), vehicle: Klucel (hydroxypropylcellulose) (HPC) 123 % of control | dose: 12.5 mg/kg/injection, schedule: Q01DX001 (ip), vehicle: Klucel (hydroxypropylcellulose) (HPC) 113 % of control

From PubChem BioAssay AID328 (DTP/NCI, 2004)
